Reference: patent US20220305037A1, “Treatment of Cancer” (Sumitomo Dainippon Pharma Oncology, Inc., priority 2019, published 2022)

Columns and labels:
[1] = tested on: patients with newly diagnosed, previously untreated AML; assay: Minimal residual disease (MRD) analysis of bone marrow by flow cytometry in the Phase 1 study; format: in vivo, human
Protocol: Minimal Residual Disease (MRD) Analysis. MRD was assessed in bone marrow samples at the time of response by a uniform central assay (Hematologics, Inc.) in an exploratory cohort, as has been previously described. Samples were first incubated with antibodies for 20 minutes at room temperature. Red blood cells were then lysed at 37° C. using buffered NH4Cl for 5 minutes, followed by centrifugation at 300 g. Cells were subsequently washed with PBS supplemented with 2% FCS and resuspended in 1% paraformaldehyde. Samples were analyzed on a FACSCalibur™ flow cytometer (Becton Dickinson Biosciences). 200,000 events were analyzed for each sample. Data analysis was performed with WinList™ software (Verity Software House). Two independent reviewers viewed each sample to arrive at a consensus on the data.

[2] = tested on: patients with newly diagnosed, previously untreated AML; assay: Phase 1 dose-escalation study of alvocidib followed by cytarabine/daunorubicin (7+3): response assessment by ELN Guidelines; format: in vivo, human
Protocol: Methods: Study Population. This was a Phase 1, open-label, multicenter, dose-escalation study of alvocidib followed by cytarabine/daunorubicin (7+3) in patients with AML (NCT03298984). Patients aged 18-65 years with newly diagnosed, previously untreated AML and pathological confirmation of bone marrow (BM) blasts ≥20% were eligible. Key inclusion criteria included: Eastern Cooperative Oncology Group (ECOG) performance status (PS) ≤2, serum creatinine level ≤1.8 mg/dL, alanine aminotransferase (ALT) and aspartate aminotransferase (AST) ≤5 times upper limit of normal (ULN), total bilirubin ≤2.0 mg/dL, and left ventricular ejection fraction (EF) >45%. Patients were excluded if they had previous treatment for AML (with the exception of hydroxyurea), and were diagnosed with acute promyelocytic leukemia (APL-M3) or core-binding factor AML ((CBF-AML: t(8;21); inv(16); t(16;16)). All patients provided written informed consent. This study was conducted as per the Declaration of Helsinki after approval by ethics committee of each participating center.
Treatment Plan: Induction.
Consolidation. Patients who achieved a complete remission (CR) received 2 to 4 cycles of consolidation therapy with high dose cytarabine (HiDAC) 3 gm/m^2 IV every 12 hours on days 1, 3 and 5 upon full hematological recovery (absolute neutrophil count >1×10^−3/L and platelets >1×10^1/L). HiDAC was permitted to be dose reduced to 1.5 gm/m^2 IV every 12 hours on days 1, 3 and 5 in those >60 years. Allogeneic stem cell transplantation was permitted after induction per standard of care but was recommended after at least 1 cycle of HiDAC consolidation in those who achieved CR.
Response Assessments. Response assessment was performed by a bone marrow aspirate and biopsy at the time of full hematologic recovery or by day 50 and day 60 of 1 versus 2 induction cycles, respectively. Response to therapy was assessed by standardized ELN Guidelines. In those who achieved CR and received consolidation therapy, a bone marrow aspirate and biopsy was performed after cycle 2 of HiDAC, after completion of consolidation therapy, and at any suspicion of relapse.
(§1) Statistical Analysis. […] Intra-patient dose escalation was not permitted. […] Database lock was on Apr. 30, 2020.

[3] = tested on: patients with newly diagnosed, previously untreated AML; assay: Kaplan-Meier time-to-event analyses and clinical outcomes (OS, EFS, RFS, relapse) in the Phase 1 study; format: in vivo, human
From the text: as §1

[4] = tested on: patients with newly diagnosed, previously untreated AML
Protocol: Treatment Plan: Induction. Alvocidib was dose-escalated starting at dose level 1: 20 mg/m^2 30-minute IV bolus followed by 30 mg/m^2 IV infusion over 4 hours on Days 1-3 (FIG. 1). Daunorubicin 60 mg/m^2 IV bolus over 15 minutes was initiated on days 5-7, and cytarabine 100 mg/m^2/day IV continuous 24-hour infusion was administered on Days 5-11. A bone marrow aspirate and biopsy was performed on day 14 (+/−3 days) and patients with residual leukemia (>5% bone marrow blasts and >10% cellularity) were recommended to receive a second induction cycle with alvocidib on days 1-3 (same dose level as induction) followed by daunorubicin 45 mg/m^2/day IV over 15 minutes on days 5 and 6 and cytarabine 100 mg/m^2/day IV continuous infusion over days 5-9 (“5+2”).
Statistical Analysis. Alvocidib dose was escalated using a 3+3 design (FIG. 1). Successive cohorts of patients (3-6 per cohort) were treated with escalated doses until the maximal tolerated dose (MTD) was established. Intra-patient dose escalation was not permitted. Descriptive analysis was performed for the safety and efficacy endpoints. MTD for alvocidib was estimated by the highest alvocidib dose for which the incidence of DLT during Cycle 1 was less than 33% in combination with 7+3. Kaplan-Meier time-to-event analyses were performed on overall survival (OS), relapse-free survival and duration of remission. […]

[5] = tested on: MDS blasts; assay: MCL-1 dependency assay of MDS blasts after azacitidine pre-treatment; format: cell-based, human; conditions: patient sample MDS1060; MCL-1 dependency cut-off of 40%
Protocol: CD13, CD33, CD34, CD45, CD3 and CD20 were used as markers to identify MDS blasts, and to perform MCL-1 dependency analyses. MDS blasts were positive for CD13, CD33 and CD34, dim for CD45 and negative for CD3 and CD20.
On day 1 of the MCL-1 dependency assay, 5×10^4-1×10^5 HS-5 feeder cells were plated into a 6-well plate, and allowed to attached overnight. HS-5 feeder cells improve viability of frozen MDS bone marrow mononuclear cells (BMMCs) after thawing. On day 2 of the assay, MDS BMMCs were thawed, and divided into three treatment groups corresponding to treatment with DMSO, treatment with 1 μM azacitidine or treatment with 2.5 μM azacitidine. On day 4, after a 48-hour treatment period, MCL-1 dependency of MDS blasts, lymphocytes and monocytes were separately assessed.

[6] = tested on: MCL-1 protein levels in blasts; conditions: cited from earlier work

Compound	MRD-negative among CR patients with ELN adverse-risk disease ([1]; 4/9, flow cytometry and/or institutional standard assessment) [%]	MRD-negative CR in ELN adverse-risk patients ([1]; exploratory cohort, 3 out of 4) [%]	differences in response to alvocidib in patients with or without MCL-1 dependence ([2]; MCL-1 dependence threshold priming >30%, exploratory analysis)	patients who received re-induction for residual leukemia on day 14 ([2]; all enrolled, 3 patients, re-induction with alvocidib and 5+2) [%]	CR rate ([2]; genomic class AML with NPM1 mutation (8/10)) [%]	CR among patients who received re-induction therapy ([2]; re-induction with alvocidib and 5+2)	patients who achieved CR without MRD and remain in CR ([3]; 9 patients) [%]	median OS ([3]; 32 patients, median follow-up 9.2 months)	duration of CR, range ([3]; CR patients relapsed to date)	CR patients relapsed to date ([3]; of the 22 CR patients, 7 patients) [%]	median RFS ([3]; time from CR/CRi up to disease relapse or death)	patients who achieved CR without evidence of MRD and relapsed ([3]; two patients) [%]	MTD (alvocidib dose) ([4]; IV bolus/IV infusion on Days 1-3, in combination with 7+3)	safety and feasibility of alvocidib administration prior to 7+3 induction ([4]; in vivo)	change of MCL-1 dependency status of blasts [5]	effect on MCL-1 protein levels in blasts [6]
CN1CC[C@H](c2c(O)cc(O)c3c(=O)cc(-c4ccccc4Cl)oc23)[C@H](O)C1 [alvocidib, 2-(2-chlorophenyl)-5,7-dihydroxy-8-[(3S,4R)-3-hydroxy-1-methylpiperidin-4-yl]chromen-4-one]	44	75	No significant differences	9	80	None	82	not reached	1.4-13.6 months	32	not reached	18	(30/60 mg/m^2)	safe, feasible		
Nc1ncn([C@@H]2O[C@H](CO)[C@@H](O)[C@H]2O)c(=O)n1 [azacitidine]															rendered MCL-1-independent blasts MCL-1 dependent	reduce MCL-1 protein levels in blasts
